Experimental data as given in ChEMBL document CHEMBL5608259 (J Med Chem, 2024).

How the values were obtained:
[1] = target: T1, Protein arginine N-methyltransferase 8 (Homo sapiens, UniProt Q9NR22); assay: Inhibition of human PRMT8 using Histone H4 as substrate and SAM as cofactor at 10 uM by radiometric HotSpot assay relative to control
Target sequence in this assay (Q9NR22 2-394 limits assumed): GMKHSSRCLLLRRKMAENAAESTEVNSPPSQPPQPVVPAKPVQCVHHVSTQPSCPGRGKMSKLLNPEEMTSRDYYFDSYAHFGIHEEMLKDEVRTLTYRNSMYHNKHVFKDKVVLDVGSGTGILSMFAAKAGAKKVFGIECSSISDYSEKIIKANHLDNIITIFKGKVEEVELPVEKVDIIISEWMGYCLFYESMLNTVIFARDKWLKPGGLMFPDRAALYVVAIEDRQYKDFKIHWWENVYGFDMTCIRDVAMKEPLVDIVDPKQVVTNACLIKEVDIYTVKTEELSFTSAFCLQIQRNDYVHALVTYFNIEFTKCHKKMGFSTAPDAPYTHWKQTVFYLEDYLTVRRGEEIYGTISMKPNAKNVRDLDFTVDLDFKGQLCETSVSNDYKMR

[2] = target: T2, Protein arginine N-methyltransferase 6 (Homo sapiens, UniProt Q96LA8); assay: Inhibition of human PRMT6 using GST-GAR as substrate and SAM as cofactor at 10 uM by radiometric HotSpot assay relative to control
Target sequence in this assay (Q96LA8 whole entry, looked up): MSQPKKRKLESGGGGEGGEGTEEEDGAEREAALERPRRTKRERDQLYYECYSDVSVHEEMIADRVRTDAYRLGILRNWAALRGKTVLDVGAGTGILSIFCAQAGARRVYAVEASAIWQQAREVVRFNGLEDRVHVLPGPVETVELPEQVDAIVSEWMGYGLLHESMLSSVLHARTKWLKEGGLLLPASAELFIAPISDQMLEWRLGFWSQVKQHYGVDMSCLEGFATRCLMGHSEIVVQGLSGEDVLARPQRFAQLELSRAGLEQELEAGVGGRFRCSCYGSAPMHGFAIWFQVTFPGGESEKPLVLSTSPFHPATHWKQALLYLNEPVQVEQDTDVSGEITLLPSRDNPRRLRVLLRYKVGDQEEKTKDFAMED

[3] = target: PRMT5/MEP50 complex (Homo sapiens) (UniProt O14744+Q9BQA1); assay: Inhibition of human PRMT5/MEP50 using Histone H2 as substrate and SAM as cofactor at 10 uM by radiometric HotSpot assay relative to control; format: protein-complex assay
[4] = Permeability of the compound by PAMPA method; format: ADME; settings: read-out: permeability
[5] = target: T3, Protein arginine N-methyltransferase 7 (Homo sapiens, UniProt Q9NVM4); assay: Inhibition of human PRMT7 using GST-GAR as substrate and SAM as cofactor by radiometric HotSpot assay
T3 sequence (Q9NVM4 whole entry): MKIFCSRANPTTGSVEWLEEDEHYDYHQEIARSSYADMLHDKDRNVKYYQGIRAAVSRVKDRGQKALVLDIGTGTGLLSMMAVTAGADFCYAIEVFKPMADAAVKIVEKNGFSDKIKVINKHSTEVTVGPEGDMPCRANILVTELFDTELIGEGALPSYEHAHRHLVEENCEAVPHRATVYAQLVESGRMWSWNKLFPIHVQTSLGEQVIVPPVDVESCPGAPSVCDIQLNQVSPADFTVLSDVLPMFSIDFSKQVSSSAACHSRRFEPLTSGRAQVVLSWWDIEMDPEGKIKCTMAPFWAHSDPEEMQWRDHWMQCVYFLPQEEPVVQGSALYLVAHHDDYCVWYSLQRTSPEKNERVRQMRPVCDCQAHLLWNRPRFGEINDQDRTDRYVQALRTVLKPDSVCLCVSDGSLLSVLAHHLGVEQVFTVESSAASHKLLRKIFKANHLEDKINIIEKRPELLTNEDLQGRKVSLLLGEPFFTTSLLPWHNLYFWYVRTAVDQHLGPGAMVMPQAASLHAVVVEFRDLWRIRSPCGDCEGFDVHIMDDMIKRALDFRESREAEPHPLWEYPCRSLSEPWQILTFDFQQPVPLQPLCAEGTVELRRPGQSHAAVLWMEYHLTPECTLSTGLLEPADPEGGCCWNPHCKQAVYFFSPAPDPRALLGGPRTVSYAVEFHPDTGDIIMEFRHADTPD

[6] = target: T4, Protein arginine N-methyltransferase 1 (Homo sapiens, UniProt Q99873); assay: Inhibition of human PRMT1 using H4-21peptide as substrate at 10 uM incubated for 10 mins by fluorescence based analysis relative to control
Target sequence in this assay (Q99873 whole entry, looked up): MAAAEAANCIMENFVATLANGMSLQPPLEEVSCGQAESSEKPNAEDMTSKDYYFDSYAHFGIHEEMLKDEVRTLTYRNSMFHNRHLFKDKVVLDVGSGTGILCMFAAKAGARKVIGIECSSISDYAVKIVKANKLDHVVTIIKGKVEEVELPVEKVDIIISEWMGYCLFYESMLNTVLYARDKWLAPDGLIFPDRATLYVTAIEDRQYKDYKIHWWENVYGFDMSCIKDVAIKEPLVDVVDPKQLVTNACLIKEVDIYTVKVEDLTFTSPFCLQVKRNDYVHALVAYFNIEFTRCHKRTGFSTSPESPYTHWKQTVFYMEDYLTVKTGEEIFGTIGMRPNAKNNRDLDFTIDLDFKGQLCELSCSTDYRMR

[7] = target: T1, Protein arginine N-methyltransferase 8; assay: Inhibition of human PRMT8 using Histone H4 as substrate and SAM as cofactor by radiometric HotSpot assay
Target sequence in this assay (Q9NR22 whole entry): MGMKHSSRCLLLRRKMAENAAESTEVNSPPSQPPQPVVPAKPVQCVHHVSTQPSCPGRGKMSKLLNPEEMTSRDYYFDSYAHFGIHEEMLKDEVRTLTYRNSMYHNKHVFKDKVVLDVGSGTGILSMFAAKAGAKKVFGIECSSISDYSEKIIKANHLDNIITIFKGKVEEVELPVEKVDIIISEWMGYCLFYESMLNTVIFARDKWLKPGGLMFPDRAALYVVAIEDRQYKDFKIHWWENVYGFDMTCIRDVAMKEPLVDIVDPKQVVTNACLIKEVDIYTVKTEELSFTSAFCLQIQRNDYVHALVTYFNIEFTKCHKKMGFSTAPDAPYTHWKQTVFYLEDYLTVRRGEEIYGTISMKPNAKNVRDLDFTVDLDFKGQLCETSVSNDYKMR

[8] = target: T2, Protein arginine N-methyltransferase 6; assay: Inhibition of PRMT6 (unknown origin)
Target sequence in this assay (Q96LA8 whole entry): as the sequence (Q96LA8 whole entry, looked up) above

PRMT5/MEP50 complex = PRMT5/MEP50 complex (Homo sapiens, UniProt O14744); assay: Inhibition of human PRMT5/MEP50 using Histone H2 as substrate and SAM as cofactor by radiometric HotSpot assay; format: protein-complex assay
PRMT5/MEP50 complex, sequence (O14744 whole entry): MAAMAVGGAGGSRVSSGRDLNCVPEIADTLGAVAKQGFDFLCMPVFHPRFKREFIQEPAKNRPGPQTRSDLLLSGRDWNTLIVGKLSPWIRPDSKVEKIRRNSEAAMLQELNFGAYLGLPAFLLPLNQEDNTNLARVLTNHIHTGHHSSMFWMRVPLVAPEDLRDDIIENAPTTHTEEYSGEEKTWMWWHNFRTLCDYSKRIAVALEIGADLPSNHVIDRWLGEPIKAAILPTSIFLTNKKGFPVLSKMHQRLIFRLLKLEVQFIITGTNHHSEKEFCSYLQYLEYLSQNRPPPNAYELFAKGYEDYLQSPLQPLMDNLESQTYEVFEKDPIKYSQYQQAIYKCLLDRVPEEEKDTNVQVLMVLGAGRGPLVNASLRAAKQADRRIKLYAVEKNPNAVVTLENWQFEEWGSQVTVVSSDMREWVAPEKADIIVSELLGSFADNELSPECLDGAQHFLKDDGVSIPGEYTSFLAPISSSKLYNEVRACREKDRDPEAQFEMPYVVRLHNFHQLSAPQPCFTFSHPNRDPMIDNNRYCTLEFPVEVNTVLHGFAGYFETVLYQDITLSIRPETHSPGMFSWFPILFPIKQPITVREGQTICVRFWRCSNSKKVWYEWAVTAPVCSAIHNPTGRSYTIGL
PRMT5/MEP50 complex, sequence (Q9BQA1 whole entry, further chain): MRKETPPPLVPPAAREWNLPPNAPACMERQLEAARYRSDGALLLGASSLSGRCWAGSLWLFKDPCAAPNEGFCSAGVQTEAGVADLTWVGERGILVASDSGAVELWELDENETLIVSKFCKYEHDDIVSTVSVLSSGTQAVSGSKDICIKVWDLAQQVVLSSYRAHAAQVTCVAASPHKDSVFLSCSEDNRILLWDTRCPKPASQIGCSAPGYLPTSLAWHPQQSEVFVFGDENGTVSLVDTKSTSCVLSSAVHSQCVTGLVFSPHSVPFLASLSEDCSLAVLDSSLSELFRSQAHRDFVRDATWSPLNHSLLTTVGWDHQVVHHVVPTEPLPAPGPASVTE

[9] = target: T4, Protein arginine N-methyltransferase 1; assay: Inhibition of human PRMT1 using Histone H4 as substrate and SAM as cofactor by radiometric HotSpot assay
Target sequence in this assay (Q99873 whole entry): as the sequence (Q99873 whole entry, looked up) above

[10] = target: T5, Protein arginine N-methyltransferase 3 (Homo sapiens, UniProt O60678); assay: Inhibition of human PRMT3 using Histone H3 as substrate and SAM as cofactor by radiometric HotSpot assay
T5 sequence (O60678 whole entry): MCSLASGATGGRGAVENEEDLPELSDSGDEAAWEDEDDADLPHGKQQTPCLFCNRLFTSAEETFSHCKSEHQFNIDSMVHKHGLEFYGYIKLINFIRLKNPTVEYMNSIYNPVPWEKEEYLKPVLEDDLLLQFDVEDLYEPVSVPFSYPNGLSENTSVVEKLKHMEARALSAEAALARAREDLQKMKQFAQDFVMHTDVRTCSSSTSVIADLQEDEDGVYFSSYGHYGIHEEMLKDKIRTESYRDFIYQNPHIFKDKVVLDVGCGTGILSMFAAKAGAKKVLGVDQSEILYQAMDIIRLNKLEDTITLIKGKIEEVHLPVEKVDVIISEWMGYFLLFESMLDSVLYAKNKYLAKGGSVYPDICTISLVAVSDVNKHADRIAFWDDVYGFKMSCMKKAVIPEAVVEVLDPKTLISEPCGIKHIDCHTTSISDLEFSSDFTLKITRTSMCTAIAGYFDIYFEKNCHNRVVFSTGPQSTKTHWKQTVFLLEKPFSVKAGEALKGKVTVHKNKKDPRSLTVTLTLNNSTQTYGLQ

[11] = target: T1, Protein arginine N-methyltransferase 8; assay: Inhibition of PRMT8 (unknown origin)
Target sequence in this assay (Q9NR22 whole entry): as the sequence (Q9NR22 whole entry) above

[12] = target: T6, Histone-arginine methyltransferase CARM1 (Homo sapiens, UniProt Q86X55); assay: Inhibition of PRMT4 (unknown origin)
T6 sequence (Q86X55 whole entry): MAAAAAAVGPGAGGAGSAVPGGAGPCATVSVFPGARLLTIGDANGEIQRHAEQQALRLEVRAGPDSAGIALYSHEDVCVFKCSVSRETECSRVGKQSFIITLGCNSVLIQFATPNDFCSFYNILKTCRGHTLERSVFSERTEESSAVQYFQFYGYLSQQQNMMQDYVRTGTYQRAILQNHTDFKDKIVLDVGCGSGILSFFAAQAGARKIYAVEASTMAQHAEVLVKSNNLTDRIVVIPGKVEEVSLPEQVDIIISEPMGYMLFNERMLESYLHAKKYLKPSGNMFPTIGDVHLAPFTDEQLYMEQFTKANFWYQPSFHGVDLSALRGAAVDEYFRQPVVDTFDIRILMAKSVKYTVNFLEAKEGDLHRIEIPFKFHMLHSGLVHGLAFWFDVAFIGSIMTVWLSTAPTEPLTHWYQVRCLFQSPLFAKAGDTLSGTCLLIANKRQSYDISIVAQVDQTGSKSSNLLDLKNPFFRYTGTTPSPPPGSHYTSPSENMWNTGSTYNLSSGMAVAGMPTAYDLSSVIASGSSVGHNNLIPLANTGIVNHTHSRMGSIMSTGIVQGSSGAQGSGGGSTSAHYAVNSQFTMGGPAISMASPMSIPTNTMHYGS

[13] = target: T4, Protein arginine N-methyltransferase 1; assay: Inhibition of PRMT1 (unknown origin)
Target sequence in this assay (Q99873 whole entry): as the sequence (Q99873 whole entry, looked up) above

[14] = target: T5, Protein arginine N-methyltransferase 3; assay: Inhibition of PRMT3 (unknown origin)
[15] = target: T3, Protein arginine N-methyltransferase 7; assay: Inhibition of PRMT7 (unknown origin)
[16] = target: T6, Histone-arginine methyltransferase CARM1; assay: Inhibition of human PRMT4 using histone H3 as substrate and SAM as cofactor by radiometric HotSpot assay

| SMILES | inhibition [1] [%] | inhibition [2] [%] | inhibition [3] [%] | Papp [4] [×10⁻⁶ cm/s] | IC50 [5] [µM] | inhibition [6] [%] | IC50 [7] [µM] | IC50 [8] [µM] | IC50 (PRMT5/MEP50 complex) [nM] | IC50 [9] [µM] | IC50 [10] [nM] | IC50 [11] [µM] | IC50 [12] [µM] | IC50 [13] [µM] | IC50 [14] [µM] | IC50 [15] [µM] | IC50 [16] [nM] |
| --- | --- | --- | --- | --- | --- | --- | --- | --- | --- | --- | --- | --- | --- | --- | --- | --- | --- |
| Nc1ncnc2c1ncn2[C@@H]1O[C@H](CSCCNCc2cccc(Br)c2)[C@@H](O)[C@H]1O | > 50 | 50 | 75 | 0.3 | – | – | – | – | – | – | – | – | – | – | – | – | – |
| N=C(NCCSC[C@H]1O[C@@H](n2cnc3c(N)ncnc32)[C@H](O)[C@@H]1O)Nc1ccccc1 | > 95 | > 90 | – | – | 2.4 | > 50 | > 10 | > 10 | 351 | > 10 | 321 | – | – | – | – | – | – |
| Nc1nc2cc(CC[C@H]3C[C@@H](n4ccc5c(N)ncnc54)[C@H](O)[C@@H]3O)ccc2cc1Br [ONAMETOSTAT] | – | – | – | – | – | – | – | > 10 | – | – | – | > 10 | > 10 | > 10 | > 10 | > 10 | – |
| N=C(N)NCCC[C@H](N)C(=O)NCC(=O)N[C@@H](CCCN)C(=O)N[C@@H](CCCNC(=N)NCCCSC[C@H]1O[C@@H](n2cnc3c(N)ncnc32)[C@H](O)[C@@H]1O)C(=O)O | – | – | – | – | 8.3 | – | > 10 | – | 0.42 | 5.9 | > 10000 | – | – | – | – | – | 2.8 |
